≈ marks a conversion by molar mass, not a printed value.
How the values were obtained:
[1] = tested on: IgE production by U266 cells; experiment: IgE production by human myeloma U266 cells, IgE ELISA of supernatants; type: cell-based
Protocol: The human myeloma cell line (U266), purchased from ATCC (American Type Culture Collection; Rockville, MD), has been used to test different herb extracts and purified compounds for their IgE inhibitory effects ([31]). 2×10^5 cells/mL of cells were cultured at 37°C under 5% CO2 in complete media containing RPMI 1640 medium supplemented, 10% FBS, 1 mM sodium pyruvate, 1×10^-5 M β-ME and 0.5% penicillin-streptomycin. XPP at 0, 2.5, 5, 10, 20 and 40 μg/mL were added at day 0. After 6 days, supernatants were harvested and IgE levels were measured by using an ELISA Kit (Mabtech Inc, OH). Briefly, samples and standards were added into prewashed 96-well plate coated with capture monoclonal antibodies (mAbs). After 2-hour incubation at room temperature, plate was washed 5 times and incubated with detection mAb for 1 hour. The plate was then washed for 5 times and incubated with streptavidin-HRP for 1hour at room temperature. The plate was then washed and developed with TMB substrate for 15 min. The optical density was measured using ELISA reader at 450nm. IgE concentrations were calculated based on the standard curve.
S Figure 2. The IgE inhibitory effect of five fractions from R.cordifolia. U266 cells (2 × 10^5 cells/mL) were co-incubated with each fraction at the concentration of 10 μg/mL for 6 days. The supernatants were harvested and IgE levels were measured by ELISA. The inhibition percentage was calculated using the equation “% inhibition = (1- IgE level each fr / IgE level non-treated ) x 100%”.

[2] = tested on: naïve C3H/HeJ mice; experiment: Sub-chronic toxicity assay; type: in vivo
Protocol: For acute toxicity analysis, naïve C3H/HeJ mice were fed with 4 mg of XPP per mouse, which is10 times of the daily dose. […] In the sub-chronic toxicity assay, naïve C3H/HeJ mice were fed with 5 times their daily therapeutic dose (2 mg/day) for 14 days. Control group mice (sham) were fed with water. Blood samples were collected at the end of each experiment. Blood urea nitrogen (BUN) and alanine aminotransferase (ALT) measurements for the evaluation of kidney and liver functions respectively and complete blood count (CBC) testing were performed by ALX laboratories, NY.

[3] = tested on: U266 cells; experiment: RT-PCR of candidate genes in XPP-treated U266 cells; type: cell-based, human
Protocol: RT-PCR analysis of genes related to Cell cycle, B cell differentiation, and IgE production was performed by QuantStudio 5 real-time PCR system (Thermo Fisher, Waltham, MA). For each PCR reaction, 12.5 μL maxima SYBR Green/ROX qPCR Master Mix 2x (Thermo Fisher, Waltham, MA) was mixed with 1.8 μL of 0.3 μM target primers and 300 ng of template DNA to make the total volume as 25 μL. The PCR procedure was set as […] 25°C for 5 min, 42°C for 60 min and 70°C for 15 min. GAPDH was used as the housekeeping gene. The Delta Ct values for each gene were calculated by normalizing the Ct values with the housekeeping gene. The relative fold change in mRNA expression between different groups was calculated and expressed as 2^−ΔΔCT. The primer sequence used are shown in Supplementary Table 1 .

## O=C1c2ccccc2C(=O)c2c(O)cc(O)cc21 [XPP, xanthopurpurin]
[1]; Homo sapiens, U-266, 144 h, 6 days culture, IgE ELISA
  IC50: 9 µg/mL (≈ 37.5 µM)
[1]; U266 cells, 6 days
  XPP concentration at which complete inhibition of IgE production was observed: 40 µg/mL
  XPP concentration at which inhibition of IgE was first observed: 2.5 µg/mL
[1]; U266 cells, 6 days, p < 0.01
  XPP concentration reaching statistically significant inhibition of IgE: 10 µg/mL
[1]; XPP 2.5-40 µg/mL, 6 days
  IgE production by U266 cells: inhibited the IgE production by U266 cells in a dose-dependent manner
[2]; mouse, in vivo
  CBC: white blood cell, red blood cell, hemoglobin and platelet levels vs control group and normal range: within the normal range and similar to the control group
[2]; sub-chronic, 5 times (2 mg/day) for 14 consecutive days
  Deaths, abnormal behavior or diarrhea: No deaths and abnormal behavior or diarrhea were observed either
[2]; sub-chronic, 5x dose (2 mg/day/mouse) for 14 days
  Mortality: 0.00%
[3]; XPP 20 μg/mL, p < 0.001
  CCND1 gene expression: significantly reduced
  IL6R gene expression: significantly reduced
  SCD1 gene expression: significantly reduced
[3]; XPP 20 μg/mL, p < 0.01
  DUSP4 gene expression: significantly increased
  PTPRC gene expression: significantly increased
[3]; increasing XPP concentration
  ETS1 gene expression: upregulation trend with the increasing concentration of XPP, but no significant value was observed

Source: article PMC10876879, “Sustained silencing peanut allergy by xanthopurpurin is associated with suppression of peripheral and bone marrow IgE-producing B cell” (Frontiers in Immunology, 2024)
